One assay addresses P. falciparum LDH (Plasmodium falciparum, UniProt Q27743). The assay can be described thus: Fluorescence-coupled LDH enzyme assay on microfluidics system with continuously variable concentration gradient. The assay is classed as biochemical. The text has this: A fluorescence-coupled enzyme assay was developed using a microfluidics system described herein for creating a continuously variable concentration gradient to monitor the reduction of NAD^+ by the enzyme LDH to give a fluorescent end product. This system was then adapted to measure potency and determine mechanism of inhibition by various inhibitors of LDH.
One of the products of the reaction in the assay, NADH, is coupled to Thermus thermophilus NADH oxidase to generate H2O2, which in turn is coupled to horseraddish peroxidase which reacts with […] and amplex red (Molecular Probes, Inc., Eugene, Oreg., U.S.A.) to give the fluorescent product resorufin. […]
The novel data analysis techniques described herein for determining the mechanism of inhibition of an inhibitor (or mechanism of activation of an activator) are applied to the data produced from the microfluidics system. The titration of the enzyme with a continuous linear variation of inhibitor and substrate from zero to a pre-determined finite concentration yields a characteristic rate profile that is defined by the specific type of interaction of the inhibitor and enzyme with respect to the substrate. […]
The titration of LDH with a linear gradient of NAD^+ was performed on the microfluidics system described herein with the change in relative fluorescence intensity monitored under initial rate conditions. […]

The target in assay [1] is rabbit muscle lactate dehydrogenase (LDH) (Oryctolagus cuniculus, UniProt P13491). In words: Continuous variation method on a microtiter plate (step concentration gradients). The assay is classed as biochemical. The note with it: limited data. An excerpt: Determination of the mechanism of inhibition by the inhibitor oxalate with respect to the substrate NAD^+ against the enzyme rabbit muscle lactate dehydrogenase (LDH) using a microtiter plate to generate individual step concentration gradients was attempted. FIG. 49 is a graph showing the results of the experiment. An attempt to determine the mechanism of inhibition by the inhibitor oxalate with respect to the substrate lactate against the enzyme rabbit muscle LDH using a microtiter plate to generate individual step concentration gradients was attempted. FIG. 50 is a graph showing the results of this experiment.

A further assay has as its system LDH. Particulars: cited from earlier work.

Read-outs that look alike come from different tables or passages of the source.

One may read the Km as the substrate concentration at which the rate is half of its maximum.

P. falciparum LDH, sequence (Q27743 whole entry): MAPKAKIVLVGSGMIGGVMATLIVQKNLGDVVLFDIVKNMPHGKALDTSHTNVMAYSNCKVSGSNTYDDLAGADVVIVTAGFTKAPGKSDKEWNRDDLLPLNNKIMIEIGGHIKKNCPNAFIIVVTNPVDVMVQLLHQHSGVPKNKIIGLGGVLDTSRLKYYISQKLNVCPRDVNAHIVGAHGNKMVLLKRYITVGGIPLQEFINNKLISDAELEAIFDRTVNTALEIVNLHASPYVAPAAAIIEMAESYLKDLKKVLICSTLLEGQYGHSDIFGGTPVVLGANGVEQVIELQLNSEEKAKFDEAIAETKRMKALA

`NC(=O)c1ccc[n+]([C@@H]2O[C@H](COP(=O)([O-])OP(=O)(O)OC[C@H]3O[C@@H](n4cnc5c(N)ncnc54)[C@H](O)[C@@H]3O)[C@@H](O)[C@H]2O)c1` [NAD^+]: the Km on P. falciparum LDH (titration of LDH with linear gradient of NAD^+, initial rate conditions) was 54 ± 2 µM.
With `O=C(O)C(=O)O` [oxalate], the mechanism of inhibition entry at P. falciparum LDH (with respect to substrate NAD^+) was “uncompetitive inhibition”; in assay [1] (with respect to NAD^+, ambiguous), “uncompetitive inhibitor”; in assay [1] (with respect to lactate) it was “competitive inhibitor”. Besides, the inhibition mechanism result with LDH (with respect to NAD^+) is “uncompetitive”; in the assay on LDH (with respect to lactate, reported previously), “competitive inhibitor”.

The record behind these values is patent publication US20090142846A1, “METHODS FOR MEASURING BIOCHEMICAL REACTIONS” (EKSIGENT TECHNOLOGIES, LLC, priority 2005, published 2009).
